We go through 17 molecules from patent US20030153544A1, “Fatty acid derivatives” (priority 1997, published 2003).

Where only a bound is given, the exact number is not on record here.

The test system of data set [1] is COR-L23/P and its resistant cell line COR-L23/R. Format: cell-based, human. To be noted: for cellular accumulation (concentration) in COR-L23/R compared with COR-L23/P: drugs at 20 μM, FIG. 11; for fluorescence due to uptake in resistant and non-resistant cells: drug concentration 10 μM, FIG. 12. As for the experimental part: Cells were exposed in suspension at 2×10^5/ml to drugs at 20 μM. Aliquots were taken at various times and rinsed in ice cold PBS before being passed through the flow cytometre.
Cells were exposed to Daunorubicine, Daunorubicine elaidic amide and Daunorubicine oleic carbamate, as described above. Drug concentration was reduced to 10 μM.

The subject of data set [2] is granuloma induced cartilage degradation. To be noted: daily oral; for glycosaminoglycan content of implanted cartilage, less than liposome-treated control group / hydroxyproline content of implanted cartilage, less than liposome-treated control group / reduction of granuloma tissue dry weight versus liposome-treated control / reduction of fluid mass of the granulomas versus liposome-treated control: naproxen 30 mg/kg, derivatives 60 mg/kg; for glycosaminoglycan content of implanted cartilage, less than liposome-treated control group / hydroxyproline content of implanted cartilage, less than liposome-treated control group: implants 2 weeks; for reduction of granuloma tissue dry weight versus liposome-treated control / reduction of fluid mass of the granulomas versus liposome-treated control: liposomes; for reduction of granuloma tissue dry weight versus liposome-treated control: control 14.36 mg; for reduction of fluid mass of the granulomas versus liposome-treated control: control 62.69 mg.
From the text: The in vivo model of granuloma induced cartilage degradation which was employed involves the implantation of sterile cotton-wrapped rat femoral head cartilage subcutaneously on the backs of mice. The cotton provokes a granulomatous response with a demonstrable T cell involvement which leads to loss of matrix compounds from the implanted cartilage. […] It involves chronic erosive disease with quantitative biochemical end points for determining the loss of cartilage matrix. Antiinflammatory activity can be judged from the wet and dry mass of the cotton granuloma, chondroprotective activity can be determined from glycosaminoglycan and hydroxyproline content (indicative of proteoglycan and collagen respectively) of the implanted cartilage.
Groups of female (n=10) TO mice (21±4 g) received a subcutaneous implant of cotton-wrapped rat femoral head cartilage. At 2 weeks the implants were removed. The cotton provoked a granulomatous response with concomitant release of proteoglycan from the implanted cartilage. The effects of daily oral administration of equimolar amounts of naproxen (30 mg/kg) and naproxen derivatives (60 mg/kg) on granuloma development and cartilage proteoglycan content were assessed. The compounds were formulated as liposomes with empty liposomes acting as vehicle control.
A 15 mg/ml liposomal formulation is prepared by the 1:1 (w/w) mixing of the specific lipid derivatives (in DMSO) and lecithin (in ethanol) in a glycerol/sterile water buffer with subsequent dialysis to remove the solvents. A 7.5 mg/ml liposomal formulation of the underivatised NSAID compounds is prepared by the addition of the specific compound to empty liposomes in glycerol/sterile water.
Results were analysed with INSTAT using Mann-Whitney and with p values corrected for ties. Values of p<0.05 were taken as significant.

A short description of data set [3]: drug toxicity LD50 in tumour-bearing mice, single intraperitoneal dose. Format: in vivo, BALB/C female mice. To be noted: for LD50 at 10 days: female, BALB/C, mouse, in vivo, ip, read-out: Mother compound LD50. On the procedure:
(§1) Murine solid ADJ/PC6 plasmacytoma and its subline selected for resistance to cisplatin and other alkylating agents was implanted subcutaneously as 1 mm^3 tumour fragments into BALB/C female mice weighing 20-25 grams. Melphalan or melphalan-elaidic amide, or chlorambucil or chlorambucil-oleylester, were administered by intraperitoneal, single dose 20 days post subcutaneous tumour implantation. Tumours were dissected on day 30, and weights of control and treated groups were compared. Activity was based on the measurement of drug toxicity, LD50 in mg/kg compared to anti-tumour effect measured as ED90, the dose in mg/kg required to reduce tumour mass by 90% compared to controls.

The test system of data set [4] is H69/LX4, human small lung cell line, overexpressing PgP.
From the text: An MTT assay was used to determine the toxicity of compounds. The cells were exposed to the compounds for 6 days prior to assaying. The cell line used was H69/LX4, human small lung cell line, overexpressing PgP.
Data set [5] concerns NK65 strain drug sensitive P. berghei. In words: 4-day test in P. berghei infected mice. Format: in vivo. Particulars: for ED50: Plasmodium berghei, ip, 96 h, 50% reduction in parasites in blood, read-out: ED50 value (SE); for ED50 / ED90 value / ED99 value: i.p. for 4 days, elaidate values × 433/600; for ED90 value: 90% reduction in parasites in blood; for ED99 value: 99% reduction in parasites in blood. As for the experimental part:
A 4-day test in NK65 strain drug sensitive P. berghei was carried out in Swiss albino female mice with doses of 0.063, 0.25, 1.0 and 4 mg/kg hydroxychloroquine-elaidate and 0.094, […], 1.5 and 6 mg/kg hydroxychloroquine given intraperitoneally for 4 days to groups of 3 mice per group. The parasite inoculum of 10^7 infected cells was given intravenously on day 0 and follwoed by the drug dose for that day. The animals were dosed for the 3 following days and on the 5th day tail blood films were prepared for parasitaemia estimation. […] These findings could be of great importance in the treatment of malaria in man.
The effective doses giving 50%, 90% and 99% reduction in P. berghei malaria parasites in the blood of mice with either hydroxychloroquine sulphate or hydroxychloroquine-elaidate is shown in this table.

Data set [6] relates to cisplatin-resistant subline of ADJ/PC6 plasmacytoma. In words: antitumour effect in vivo, cisplatin-resistant subline of ADJ/PC6 plasmacytoma. Details: species or system murine. As for the experimental part: as §1
In data set [7] the test system is ADJ/PC6 plasmacytoma. In words: antitumour effect in vivo, murine subcutaneous ADJ/PC6 plasmacytoma (sensitive). Particulars: i.p. single dose day 20, tumours weighed day 30. On the procedure: as §1
Data set [8] concerns endotoxin induced airway changes. In words: endotoxin (LPS) induced airway changes in rats, airway hyperresponsiveness model. The format is in vivo, F344 rats.
Method: In a model of acute inflammatory airway changes in rats, the animals are exposed to aerosolized endotoxin (LPS). […] 10 male F344 rats were exposed to 100 μg/ml LPS for 30 minutes in a chamber. 12 and 4 hours prior to aerosol exposure the animals were treated with either prednisolone or the prednisolone derivative by instillation, 3 mg/kg. 90 minutes after the end of the aerosol exposure, the animals were prepared for assessment of airway responsiveness to 5-hydroxytryptamine and evaluation of airway inflammation. 5HT was added intravenously every 5 minutes until minimum 50% increase in lung resistance is observed, and the amount of 5 HT necessary to increase the lung resistance with 50%, PC50RL was calculated.
The test system of data set [9] is rat peritoneal monocytes/macrophages. In words: effect on rat peritoneal monocytes/macrophages after intraperitoneal injection (cell counts, chemoluminescence on stimulation). The format is in vivo. To be noted: for activity (chemoluminescence) of zymosan stimulated peritoneal cells: 6, 12, 25, 48 and 72 hours post treatment, FIG. 5.
Where [10] appears, read: i.p. single dose day 20, tumours weighed day 30.

For the molecule `CCCCCCCC/C=C\CCCCCCCCOC(=O)N[C@H]1C[C@H](O[C@H]2C[C@](O)(C(=O)CO)Cc3c(O)c4c(c(O)c32)C(=O)c2c(OC)cccc2C4=O)O[C@@H](C)[C@H]1O` (relative stereo) [Doxorubicine-oleyl-carbamate, N-(cis-9-octadecen-1-oxycarbonyl)doxorubicin], the “cellular accumulation (concentration) in COR-L23/R compared with COR-L23/P” value (from here on “cellular accumulation … compared with COR-L23/P”) in [1] is “approximately the same”.
As to `CCCCCCCC/C=C\CCCCCCCCNC(=O)[C@@H](C)c1ccc2cc(OC)ccc2c1` (stereo in doubt) [naproxen oleyl amide, S(+)-2-(6-methoxy-2-naphthyl)propionic acid-(cis-9′-octadecenyl)-amide], in data set [2], the “glycosaminoglycan content of implanted cartilage, less than liposome-treated control group” value (from here on “glycosaminoglycan content”) is on record as 11% and the “hydroxyproline content of implanted cartilage, less than liposome-treated control group” value (“hydroxyproline content” below) turned out to be 3%. For the same molecule, in [2] (2 weeks), the “reduction of granuloma tissue dry weight versus liposome-treated control” value is on record as 38% and the “reduction of fluid mass of the granulomas versus liposome-treated control” value is listed as 22%.
Regarding `CCCCCCCC/C=C\CCCCCCCCOC(=O)[C@@H](C)c1ccc2cc(OC)ccc2c1` (stereo in doubt) [naproxen oleyl ester, S(+)-2-(6-methoxy-2-naphthyl)propionic acid-cis-9′-octadecenyl-ester], in data set [2], the “glycosaminoglycan content” value came out at 12% and the “hydroxyproline content” value was determined as 8%. Besides, in [2] (2 weeks), the “reduction of granuloma tissue dry weight versus liposome-treated control” value turned out to be 12% and the “reduction of fluid mass of the granulomas versus liposome-treated control” value came to 14%.
On to `CCCCCCCC/C=C\CCCCCCCCOc1ccc2cc([C@H](C)C(=O)O)ccc2c1` (stereo in doubt) [naproxen oleyl ether, S(+)-2-(6-[cis-9′-octadecenoxy]-2-naphthyl)-propionic acid], for which, in data set [2] (2 weeks), the “reduction of granuloma tissue dry weight versus liposome-treated control” value came to 16% and the “reduction of fluid mass of the granulomas versus liposome-treated control” value was 9%.
For `O=C(O)CCCc1ccc(N(CCCl)CCCl)cc1` [Chlorambucil, 4-[p-[bis(2-chlorethyl)amino]-phenyl]butyric acid, reference compound], the LD50 – broadly, the dose expected to kill half of the subjects tested – at 10 days in data set [3] was 57 mg/kg.
As for `CCCCCCCCC=CCCCCCCCCOC(=O)NC1CC(OC2CC(O)(C(C)=O)Cc3c(O)c4c(c(O)c32)C(=O)c2c(OC)cccc2C4=O)OC(C)C1O` (stereo not drawn) [Daunorubicine oleic carbamate, N-(cis-9-octadecen-1-oxycarbonyl)daunorubicin], in [1], the “fluorescence due to uptake in resistant and non-resistant cells” value was “more or less equal in the two cell types”.
As to `COc1cccc2c1C(=O)c1c(O)c3c(c(O)c1C2=O)C[C@@](O)(C(=O)CO)C[C@@H]3O[C@H]1C[C@H](N)[C@H](O)[C@H](C)O1` [Doxorubicine, reference compound], the “cellular accumulation … compared with COR-L23/P” value in data set [1] is listed as “much lower in the resistant cell line”.
Consider `CCCCCCCCC=CCCCCCCCC(=O)NC1CC(OC2CC(O)(C(=O)CO)Cc3c(O)c4c(c(O)c32)C(=O)c2c(OC)cccc2C4=O)OC(C)C1O` (stereo not shown) [Doxorubicine-elaidic-amide, Elaidic acid doxorubicin amide], for which the “cellular accumulation … compared with COR-L23/P” value in [1] was “approximately the same”. Also, the IC50 (commonly the concentration at which inhibition is half-maximal) in data set [4] was above 50 µM.
In the case of `CCN(CCO)CCCC(C)Nc1ccnc2cc(Cl)ccc12` (stereo not shown) [Hydroxychloroquine sulphate, 7-chloro-4-[4-[ethyl(2-hydroxyethyl)amino]1-methylbutylamino]quinoline, reference compound], in data set [5], the ED50 (usually the dose that gives a 50% effect, or the effect in half of the subjects) was found to be 1.74 mg/kg; the ED90 value came out at 2.75 mg/kg; the ED99 value is listed as 4.52 mg/kg.
With `CCCCCCCC/C=C/CCCCCCCC(=O)OCCN(CC)CCCC(C)Nc1ccnc2cc(Cl)ccc12` (stereo not shown) [Hydroxychloroquine-elaidate, 7-chloro-4-[4-[ethyl(2-elaidoyloxyethyl)amino]1-methylbutylamino]-quinoline], in data set [5], the ED50 is 0.71 mg/kg, the ED90 value was 0.93 mg/kg and the ED99 value amounted to 1.24 mg/kg. In addition, the “times more effective than hydroxychloroquine itself” value in data set [5] (on a molar basis, 4 day test) is recorded as 2.5- 3 times.
As for `N[C@@H](Cc1ccc(N(CCCl)CCCl)cc1)C(=O)O` [Melphalan, L-3-[p-[bis(2-chlorethyl)amino]-phenyl]alanine, reference compound], in data set [6] (setting [10]), the “ED90, dose required to reduce tumour mass by 90% compared to controls” value is on record as “no activity”. The LD50 at 10 days in [3] was found to be 23 mg/kg.
On to `CCCCCCCC/C=C\CCCCCCCCOC(=O)CCCc1ccc(N(CCCl)CCCl)cc1` [chlorambucil-oleylester, Chlorambucil-oleyl ester], for which, in data set [3], the “Derivative LD50” value was above 1600 mg/kg.
For `CCCCCCCC/C=C/CCCCCCCC(=O)NC(Cc1ccc(N(CCCl)CCCl)cc1)C(=O)O` (stereo not shown) [melphalan-elaidic amide, Elaidic acid melphalan amide], the “ED90, dose required to reduce tumour mass by 90% compared to controls” value in data set [6] (setting [10]) was 60 mg/kg; in data set [6] (i.p. single dose day 20, tumours weighed day 30, listed as melphalan-elaidic acid amide), “ED90 was achieved”; in data set [7], “ED90 was achieved”. In addition, in data set [3], the “Derivative LD50” value was determined as 180 mg/kg.
As for `COc1ccc2cc([C@H](C)C(=O)O)ccc2c1` [naproxen, S(+)-2-(6-methoxy-2-naphthyl)propionic acid, reference compound], the “implants lost through aggressive behaviour of the animals” value in data set [2] (2 weeks, n=10) is on record as 4 out of 10. Besides, in data set [2], the “glycosaminoglycan content” value was 16% and the “hydroxyproline content” value was 12%. Besides, in data set [2] (2 weeks), the “reduction of granuloma tissue dry weight versus liposome-treated control” value is recorded as “no effect” and the “reduction of fluid mass of the granulomas versus liposome-treated control” value was 12%.
For the molecule `C[C@]12C=CC(=O)C=C1CC[C@@H]1[C@@H]2[C@@H](O)C[C@@]2(C)[C@H]1CC[C@]2(O)C(=O)CO` [prednisolone, 11β, 17α, 21-trihydroxypregna-1,4-diene-3,20-dione, reference compound], the “number of inflammatory cells in the bronchoalveolar fluid” value in data set [8] (instillation 3 mg/kg, 12 and 4 hours prior to LPS aerosol) is given as “Neither prednisolone nor the derivative did influence”. Besides, in data set [9] (i.p. 4 ml at 10 mg/ml), the “activity (chemoluminescence) of zymosan stimulated peritoneal cells” value is reported as “slight reduction of the chemoluminescence at 6 hours”. In [9] (i.p. 4 ml at 10 mg/ml, 6-72 hours, FIG. 8, FIG. 9), the “number of macrophages in peritoneal lavage” value is “much less pronounced, and only seen at 6 and 12 hours”.
`CCCCCCCC/C=C/CCCCCCCC(=O)OCC(=O)[C@@]1(O)CC[C@H]2[C@@H]3CCC4=CC(=O)C=C[C@]4(C)[C@H]3[C@@H](O)C[C@@]21C` [prednisolone-elaidate, 11β, 17α, 21-trihydroxypregna-1,4-diene-3,20-dione-21-elaidate]: in [8] (rat, in vivo), the “airway responsiveness to 5-hydroxytryptamine (PC50RL)” value is listed as “affected to a surprisingly high extent” and the “number of inflammatory cells in the bronchoalveolar fluid” value is “Neither prednisolone nor the derivative did influence”. Further, the “chemiluminescence of stimulated peritoneal cells, comparison of 7 fatty acid esters of prednisolone” value in data set [9] (i.p. 10 mg/ml, 48 hours post treatment, FIG. 6) is “the best”. For the same molecule, the “activity (chemoluminescence) of zymosan stimulated peritoneal cells” value in data set [9] (i.p. 4 ml at 10 mg/ml) is on record as “reduced compared to control for up to 48 hours post treatment”.
Turning to “Elaidic acid daunorubicin amide [Daunorubicine elaidic amide]”, the “fluorescence due to uptake in resistant and non-resistant cells” value in data set [1] is on record as “more or less equal in the two cell types”.
